Laboratory results: patent US20090280172A1, “GALENIC FORMULATIONS OF ORGANIC COMPOUNDS” (priority 2006, published 2009)

Test: Bioavailability of transmucosal dosage forms of aliskiren compared with oral formulations
Format: in vivo
Details: transmucosal route vs oral formulation e.g. as employed in WO2005/089729

COCCCOc1cc(C[C@@H](C[C@H](N)[C@@H](O)C[C@H](C(=O)NCC(C)(C)C(N)=O)C(C)C)C(C)C)ccc1OC [aliskiren, 2(S),4(S),5(S),7(S)-N-(3-amino-2,2-dimethyl-3-oxopropyl)-2,7-di(1-methylethyl)-4-hydroxy-5-amino-8-[4-methoxy-3-(3-methoxy-propoxy)phenyl]-octanamide]
increase of bioavailability over the bioavailability of an oral formulation: at least three times
